# Results taken from paper PMC10060354, “Discovery of a small molecule ligand of FRS2 that inhibits invasion and tumor growth” (Cellular Oncology, 2022).
# Several values for one entry are separate records, joined by “and”; a condition that tells them apart may be missing. Equal values may be shown once.
# Assays:
# DAOY FRS2-FLAG cells = assay: SIA, bFGF-induced collagen I invasion in FRS2-FLAG overexpressing cells; assay type: cell-based; conditions: Homo sapiens
# Procedure: (§1) 1000—2500 cells/well in 100 μl were seeded in 96 well Corning® Spheroid microplate (CLS4520, Sigma-Aldrich) or in cell-repellent 96 well microplate (650,790, Greiner Bio-one). SIA and analysis was performed as described before. In brief: After spheroid formation (24 – 72 h after seeding), 70 µl medium was removed and replaced with the collagen mixture (2.5 mg/ml Pure Col Collagen I (Advanced Biomatrix)), DMEM 1x (from 10 × stock, Sigma, D2429) and 0.4% Sodium bicarbonate (Sigma, S8761)), resulting in a final collagen concentration of 1.75 mg/ml. Embedded spheroids were stimulated with bFGF (100 ng/ml if not otherwise stated), HGF (30 ng /ml) or EGF (20 ng/ml) and distance of invaded cells quantified 24 – 48 h after embedding. Compounds and BGJ398 were added in Dimethylsulfoxid (DMSO) and corresponding DMSO concentrations were used in control samples.
# Lentiviral construct pLV[Exp]-hPGK > hFRS2[NM_001278357.1](ns)*/3xFLAG:P2A:Puro was ordered from VectorBuilder (Santa Clara, CA, USA). A FLAG-tag ([…]) was fused to the C-terminus of FRS2. Lentiviral particles were produced by transfection of HEK-293 T cells with transfer plasmids, psPAX2 (#12,260, Addgene) and pCMV-VSV-G plasmid (#8454, Addgene) in a ratio of 5:3:2 using polyethlenimine (24,765–2. Polysciences). Virus supernatant was harvested 30 h post transfection and filtered. […]
# DAOY siFRS2 cells = assay: SIA, bFGF-induced collagen I invasion in FRS2-depleted cells; assay type: cell-based, human
# Procedure: as §1
# siFRS2 in DAOY cells: 50,000 cells/well in 2 ml medium were seeded in 6 well plates and incubated at 37 °C, 5% CO2. The following day cells were transfected with 10 nM siRNA (5 nM Silencer Select, 5 nM Stealth RNAi siRNA) using Lipofectamin RNAiMAX Transfection Reagent (13,778,075; Invitrogen) and Opti-MEM® medium (15,392,402; Gibco). After 6 h, the medium was exchanged with fresh complete medium and further processed for the SIA protocol.
# DAOY = assay: CellTiter-Glo 3D cell viability; assay type: cell-based; conditions: Homo sapiens, full growth medium, 48 h
# Procedure: (§2) Cell viability was determined using CellTiter-Glo® 2D or 3D cell viability assays (#G9242, #G9682, Promega). 500 cells/25 µl were seeded in flat bottom (#781,091, Greiner bio-one) or U-low adhesion (#4516, Corning) 384-well plate, 24 h prior to treatment. Increasing concentrations of compounds are deposited on cells using a HP Digital Drug Dispenser with DMSO total volume normalization. After 48 h, the CellTiter-Glo® 2D or 3D reagent was added (volume/volume) following manufacturer’s instructions. Plates were incubated at RT (room temperature) under agitation for 30 min and luminescence representing the number of viable cells was quantified with a Cytation 3 imaging reader (BioTek®). Experiments were performed independently three times with three technical replicas each.
# HCT116 = assay: CellTiter-Glo 3D cell viability; assay type: cell-based; conditions: Homo sapiens, HCT-116, full growth medium, 48 h
# Procedure: as §2
# M059K = assay: CellTiter-Glo 3D cell viability; assay type: cell-based; conditions: Homo sapiens, full growth medium, 48 h
# Procedure: as §2
# SKOV3 = assay: CellTiter-Glo 3D cell viability; assay type: cell-based; conditions: Homo sapiens, SK-OV-3, full growth medium, 48 h
# Procedure: as §2
# [1] = mouse, in vivo
# Procedure: […]. Animals received an initial dose of 30 mg/kg. If the animals had no significant adverse effects within 60 min after treatment, the dose for the next cohort was increased. If one or more animals died or had significant adverse effects within 60 min after treatment, the dose for the next cohort was decreased. The testing stopped when all animals survived at the upper bound (200 mg/kg), or lower bound (3 mg/kg) had been reached. Full clinical examinations and body weight change were assessed. At each dose level, animals were observed, and mortality was noted daily after compound administration for three days. […] Body weights were recorded pre-dose and at 72 h.
# The next dose level was determined by the following scheme: • 30 mg/kg, if no death, 100 mg/kg, if no death, 200 mg/kg (upper bound) • 30 mg/kg, if no death, 100 mg/kg, if death, 50 mg/kg • 30 mg/kg, if death, 10 mg/kg, if death, 3 mg/kg (lower bound) • 30 mg/kg, if death, 10 mg/kg, if no death, 17 mg/kg
# [2] = In vivo PK of 7 (30, 100, 200 mg/kg PO), plasma and liver exposure; set-up: species or system ICR mice; conditions: both sexes, ICR, mouse, plasma, 0.5 h after administration, read-out: plasma concentration reached
# Procedure: In vivo PK studies were performed by Pharmacology Discovery Services Taiwan (New Taipei City, Taiwan). 7 (30, 100, and 200 mg/kg, PO) was further administered to groups of 2 male and 2 female (23 ± 3 g) satellite ICR mice in PK study; the plasma and liver samples were harvested at 0.5 h after administration. In addition, one additional group was dosed at 30 mg/kg and the plasma samples were harvested at 1 and 2 h(s) after the treatment. The body and liver weights were recorded. The exposure levels (ng/ml or ng/g) of 7 in plasma and liver samples were then determined by Liquid Chromatograph Tandem Mass Spectrometer (LC–MS/MS), and the plasma: liver ratios were calculated.
# AGS flank tumors = assay: Anti-tumor activity, AGS flank xenograft model; assay type: in vivo
# Procedure: In vivo mouse models were generated and experiment with SKOV3 and AGS models performed by EPO, experimental pharmacology & oncology Berlin-Buch GMBH (Berlin, Germany). AGS model: AGS cells were cultured in F12-K medium (10%FCS, 1%PS) until P11. […]. Tumor diameters were determined by calliper measurements 2 × weekly, body weight (BW) was measured as parameter for tolerability 2 × weekly.
# [3] = AGS model, 200 mg/kg PO once per day
structure (smiles),measurement,setting,value
O=[N+]([O-])c1c(Cl)cc(O)c2c1C1C=CCC1C(c1ccc(Cl)cc1)N2 (stereo not drawn) [Compound 7],IC50,DAOY FRS2-FLAG cells,4.16 µM
same,IC50,"DAOY siFRS2 cells; Homo sapiens, DAOY siFRS2 (reduced FRS2)",7.96 µM
same,increase of IC50 in cells with reduced FRS2 compared to control,DAOY siFRS2 cells; siFRS2 vs siCTL,more than 2.5 fold
same,IC50,DAOY,6.56 µM
same,IC50,HCT116,4.56 µM
same,IC50,M059K,15.2 µM
same,IC50,SKOV3,9.46 µM
same,single-dose tolerability (result in words),[1],No mortality and body weight loss was observed
same,concentration at 0.5 h,[2],10000 ng/mL and > 20 µM
same,tolerability in AGS tumor-bearing mice (result in words),"AGS flank tumors; 200 mg/kg PO, treatment interrupted for 7 days at day 72",signs of toxicity
same,animals with TV reduced at d67 and plateaued between d70 and 77,AGS flank tumors; [3],four out of the six
same,average tumor volume (result in words),AGS flank tumors; [3],did not significantly reduce average TV compared to control
